Measurements as given in patent publication US20140107100A1, “Benzoxazepines as Inhibitors of PI3K/mTOR and Methods of Their Use and Manufacture” (EXELIXIS, INC., priority 2010, published 2014).

target: mTOR/GbL/Raptor (mTORC1) (Homo sapiens, UniProt P42345); assay: mTOR/GbL/Raptor (mTORC1) ELISA assay, phosphorylation of 4E-BP1; format: biochemical; conditions: 0.2 nM mTORC1, 40 uM ATP, 50 nM NHis-tagged 4E-BP1, 120 minutes; read-out: IC50 in this assay (mTORC1 ELISA)
Procedure, shortened: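 Phospho-4E-BP1 was quantified by luminescent ELISA (anti-phospho-4E-BP1 IgG, HRP-tagged secondary) after capture of the His-tagged substrate on Ni-chelate plates.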

Row | Structure (SMILES) | IC50
1 | CNC(=O)c1sc(N2CCOc3c(C)cc(-c4cnc(Cl)c(NS(C)(=O)=O)c4)cc3C2)nc1C(C)C [Compound 22, 2-[7-{6-chloro-5-[(methylsulfonyl)amino]pyridin-3-yl}-9-methyl-2,3-dihydro-1,4-benzoxazepin-4(5H)-yl]-N-methyl-4-(1-methylethyl)-1,3-thiazole-5-carboxamide] | ≤ 0.1 µM
2 | CNCc1nc(C)c(C(C)C)c(N2CCOc3c(C)cc(-c4cnc5sc(N)nc5c4)cc3C2)n1 [Compound 136, 6-(9-methyl-4-{6-methyl-2-[(methylamino)methyl]-5-(1-methylethyl)pyrimidin-4-yl}-2,3,4,5-tetrahydro-1,4-benzoxazepin-7-yl)[1,3]thiazolo[5,4-b]pyridin-2-amine] | ≤ 0.1 µM
3 | CNc1nc(-c2cc(C)c3c(c2)CN(c2nc(N)nc(C)c2C(C)C)CCO3)cs1 [Compound 112, 4-methyl-5-(1-methylethyl)-6-{9-methyl-7-[2-(methylamino)-1,3-thiazol-4-yl]-2,3-dihydro-1,4-benzoxazepin-4(5H)-yl}pyrimidin-2-amine] | 0.1 to 0.5 µM
4 | Cc1cc(-c2cn[nH]c2)cc2c1OCCN(c1nc(N)nc(C)c1C(C)C)C2 [Compound 80, 4-methyl-5-(1-methylethyl)-6-[9-methyl-7-(1H-pyrazol-4-yl)-2,3-dihydro-1,4-benzoxazepin-4(5H)-yl]pyrimidin-2-amine] | ≤ 0.1 µM
5 | Cc1cc(-c2cnc3sc(N)nc3c2)cc2c1OCCN(c1nc(CN(C)C(C)(C)C)nc(C)c1C(C)C)C2 [Compound 100, 6-{4-[2-{[(1,1-dimethylethyl)(methyl)amino]methyl}-6-methyl-5-(1-methylethyl)pyrimidin-4-yl]-9-methyl-2,3,4,5-tetrahydro-1,4-benzoxazepin-7-yl}[1,3]thiazolo[5,4-b]pyridin-2-amine] | 0.1 to 0.5 µM
6 | Cc1cc(-c2cnc3sc(N)nc3c2)cc2c1OCCN(c1ncc(C#N)c(N)n1)C2 [Compound 26, 4-amino-2-[7-(2-amino[1,3]thiazolo[5,4-b]pyridin-6-yl)-9-methyl-2,3-dihydro-1,4-benzoxazepin-4(5H)-yl]pyrimidine-5-carbonitrile] | 0.1 to 0.5 µM
7 | Cc1ncc(C(C)C)c(N2CCOc3c(C)cc(-c4cnc5sc(N)nc5c4)cc3C2)n1 [Compound 107, 6-{9-methyl-4-[2-methyl-5-(1-methylethyl)pyrimidin-4-yl]-2,3,4,5-tetrahyro-1,4-benzoxazepin-7-yl}[1,3]thiazolo[5,4-b]pyridin-2-amine] | ≤ 0.1 µM
8 | CCN(Cc1nc(C)c(C(C)C)c(N2CCOc3c(C)cc(-c4cnc5nc[nH]c5c4)cc3C2)n1)CC(F)F [Compound 171, N-ethyl-2,2-difluoro-N-({4-[7-(1H-imidazo[4,5-b]pyridin-6-yl)-9-methyl-2,3-dihydro-1,4-benzoxazepin-4(5H)-yl]-6-methyl-5-(1-methylethyl)pyrimidin-2-yl}methyl)ethanamine] | 0.1 to 0.5 µM
9 | CCc1c(C)nc(N)nc1N1CCOc2c(C)cc(-c3cnc4sc(N)nc4c3)cc2C1 [Compound 8, 6-[4-(2-amino-5-ethyl-6-methylpyrimidin-4-yl)-9-methyl-2,3,4,5-tetrahydro-1,4-benzoxazepin-7-yl][1,3]thiazolo[5,4-b]pyridin-2-amine] | ≤ 0.1 µM
10 | Cc1cc(-c2cnc3sc(N)nc3c2)cc2c1OCCN(c1ncccc1C(N)=O)C2 [Compound 39, 2-[7-(2-amino[1,3]thiazolo[5,4-b]pyridin-6-yl)-9-methyl-2,3-dihydro-1,4-benzoxazepin-4(5H)-yl]pyridine-3-carboxamide] | 0.1 to 0.5 µM
11 | Cc1cc(-c2cnc(Cl)c(NS(C)(=O)=O)c2)cc2c1OCCN(c1nc(CNCC(F)F)nc(C)c1C(C)C)C2 [Compound 164, N-(2-chloro-5-{4-[2-{[(2,2-difluoroethyl)amino]methyl}-6-methyl-5-(1-methylethyl)pyrimidin-4-yl]-9-methyl-2,3,4,5-tetrahydro-1,4-benzoxazepin-7-yl}pyridin-3-yl)methanesulfonamide] | ≤ 0.1 µM
12 | Cc1cc(-c2cnc3sc(N)nc3c2)cc2c1OCCN(c1nc(C(O)C(F)(F)F)nc(C)c1C(C)C)C2 (stereo not drawn) [Compound 94, 1-{4-[7-(2-amino[1,3]thiazolo[5,4-b]pyridin-6-yl)-9-methyl-2,3-dihydro-1,4-benzoxazepin-4(5H)-yl]-6-methyl-5-(1-methylethyl)pyrimidin-2-yl}-2,2,2-trifluoroethanol] | ≤ 0.1 µM
13 | Cc1cc(-c2cnc3sc(N)nc3c2)cc2c1OCCN(c1nc(CC#N)nc(C)c1C(C)C)C2 [Compound 105, {4-[7-(2-amino[1,3]thiazolo[5,4-b]pyridin-6-yl)-9-methyl-2,3-dihydro-1,4-benzoxazepin-4(5H)-yl]-6-methyl-5-(1-methylethyl)pyrimidin-2-yl}acetonitrile] | ≤ 0.1 µM
14 | CCc1c(C)nc(CN(C)C)nc1N1CCOc2c(C)cc(-c3cnc4sc(N)nc4c3)cc2C1 [Compound 67, 6-(4-{2-[(dimethylamino)methyl]-5-ethyl-6-methylpyrimidin-4-yl}-9-methyl-2,3,4,5-tetrahydro-1,4-benzoxazepin-7-yl)[1,3]thiazolo[5,4-b]pyridin-2-amine] | ≤ 0.1 µM
15 | CC#CCc1c(C)nc(C)nc1N1CCOc2c(C)cc(-c3cnc4sc(N)nc4c3)cc2C1 [Compound 141, 6-[4-(5-but-2-yn-1-yl-2,6-dimethylpyrimidin-4-yl)-9-methyl-2,3,4,5-tetrahydro-1,4-benzoxazepin-7-yl][1,3]thiazolo[5,4-b]pyridin-2-amine] | ≤ 0.1 µM
16 | Cc1nc2ccc(-c3cc(C)c4c(c3)CN(c3ncnc5ccc(I)cc35)CCO4)cc2[nH]1 [Compound 47, 4-(6-iodoquinazolin-4-yl)-9-methyl-7-(2-methyl-1H-benzimidazol-6-yl)-2,3,4,5-tetrahydro-1,4-benzoxazepine] | 0.1 to 0.5 µM
17 | Cc1cc(-c2cnc(N)s2)cc2c1OCCN(c1nc(N)nc(C)c1C(C)C)C2 [Compound 84, 4-[7-(2-amino-1,3-thiazol-5-yl)-9-methyl-2,3-dihydro-1,4-benzoxazepin-4(5H)-yl]-6-methyl-5-(1-methylethyl)pyrimidin-2-amine] | ≤ 0.1 µM
18 | COc1ncc(-c2cc(C)c3c(c2)CN(c2nc(N)nc(C)c2C(C)C)CCO3)cc1NS(C)(=O)=O [Compound 21, N-[5-{4-[2-amino-6-methyl-5-(1-methylethyl)pyrimidin-4-yl]-9-methyl-2,3,4,5-tetrahydro-1,4-benzoxazepin-7-yl}-2-(methyloxy)pyridin-3-yl]methanesulfonamide] | ≤ 0.1 µM
19 | CCNCc1nc(C)c(C(C)C)c(N2CCOc3c(C)cc(-c4cnc5sc(N)nc5c4)cc3C2)n1 [Compound 158, 6-(4-{2-[(ethylamino)methyl]-6-methyl-5-(1-methylethyl)pyrimidin-4-yl}-9-methyl-2,3,4,5-tetrahydro-1,4-benzoxazepin-7-yl)[1,3]thiazolo[5,4-b]pyridin-2-amine] | ≤ 0.1 µM
20 | Cc1cc(-c2cnc3sc(N)nc3c2)cc2c1OCCN(c1nc(N)c(C#N)c(C)c1C#N)C2 [Compound 57, 2-amino-6-[7-(2-amino[1,3]thiazolo[5,4-b]pyridin-6-yl)-9-methyl-2,3-dihydro-1,4-benzoxazepin-4(5H)-yl]-4-methylpyridine-3,5-dicarbonitrile] | ≤ 0.1 µM
21 | Cc1cc(-c2ccc(-c3ncc[nH]3)cc2)cc2c1OCCN(c1nc(N)nc(C)c1C(C)C)C2 [Compound 42, 4-{7-[4-(1H-imidazol-2-yl)phenyl]-9-methyl-2,3-dihydro-1,4-benzoxazepin-4(5H)-yl}-6-methyl-5-(1-methylethyl)pyrimidin-2-amine] | ≤ 0.1 µM
